The data set can be described thus: gradient 5% acetonitrile 3 min, to 50% in 2 min, to 85% in 15 min, held 3 min, 100 µL/min. Particulars: column: Zorbax Extend-C18 2.1 x 50 mm; eluents: water / acetonitrile, 0.1% formic acid. In short, it runs like this: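 Using water and acetonitrile that each contained 0.1% formic acid, mixtures of ~100 pure standards were separated at 100 μL/min on a Zorbax Extend-C18 column (2.1 × 50 mm, 1.8 μm). The HPLC fed a quadrupole time-of-flight mass spectrometer working in positive and negative ionization mode, with dead and dwell volumes of 40 μL and 900 μL. Data were acquired over 3 months. Retention time was read from computationally picked adduct peaks after manual inspection of each.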
The compound `Cc1cc(C)n(CCNC(=O)NCc2cccs2)n1` displayed an RP-LC retention time of 593 s.

Consider `Cc1csc(-c2ccc(N3CCN(C(=O)c4cccc(C#N)c4)CC3)nc2)n1`, for which the RP-LC retention time worked out at 771 s.

As for `Cn1nc(C(=O)Nc2ccccc2)c2c1CCN(C(=O)Nc1cccc(Br)c1)C2`, the RP-LC retention time was found to be 914 s.

For `COc1ccc(Cn2nnc(C(=O)NCC3CC3)c2-n2cccc2)cc1`, the RP-LC retention time was 924 s.

`CC(C)NC(=O)c1ccc(OCC2CCCN(C(=O)Cc3ccccc3F)C2)cc1` (configuration not stated) came in with an RP-LC retention time of 875 s.

In turn, `Cc1ccc(NC(=O)N2CCc3nc[nH]c3C2)cc1F` yielded an RP-LC retention time of 606 s.

`CNC(=O)CCC(=O)N1c2ccccc2NC2=C(C(=O)CC(C)(C)C2)C1c1ccccc1` (configuration not stated) registered an RP-LC retention time of 686 s.

Compound `COc1cc(NC(=O)C2CCCN(c3nc4ccccc4nc3OC)C2)c(OC)cc1Cl` (configuration not stated) showed an RP-LC retention time of 1290 s.

The compound `Cc1ccc(Cl)c(NC(=O)C2CCc3nc(N4CCOCC4)ncc3C2)c1` (configuration not stated) registered an RP-LC retention time of 865 s.

As for `CS(=O)(=O)N1CCC(CC(=O)NCCC2=CCCCC2)C1` (configuration not stated), the RP-LC retention time is 743 s.

For the compound `N#Cc1cccc(NC(=O)C2CCN(S(=O)(=O)c3ccc4c(c3)NC(=O)CO4)CC2)c1`, the RP-LC retention time was found to be 763 s.

For the compound `CCSc1nnc(NC(=O)c2nn(-c3ccc(F)cc3)cc2OC)s1`, the RP-LC retention time came to 881 s.

`CCNC(=O)c1cc(C2CC2)[nH]n1` gave an RP-LC retention time of 611 s.

Turning to `CCn1nnc(NCc2ccc(-c3ccc(C)c(Cl)c3)o2)n1`, the RP-LC retention time came out at 1090 s.

In turn, `COc1ccc(Cl)cc1NC(=O)N1CCC2(CC1)N=C(c1cccc(F)c1)C(=O)N2` registered an RP-LC retention time of 882 s.

As for `COC(=O)CC(=O)Nc1ccc(-c2nc(-c3ccccc3)co2)cc1`, the RP-LC retention time stood at 906 s.

Compound `CN(Cc1nc2ccccc2n1CC(=O)N1CCOCC1)C(=O)c1ccco1` returned an RP-LC retention time of 587 s.

On to `CC(C)N1CCc2c(sc(NC(=O)COc3ccc(Cl)cc3Cl)c2C(N)=O)C1`, for which the RP-LC retention time is 598 s.

For `Cc1cccc(NC(=O)N2CC(N(C3CCOCC3)S(C)(=O)=O)C2)c1`, the RP-LC retention time was 706 s.

The compound `CNC(=O)c1cc(N2CCCC2)nc2c(Cl)cccc12` came in with an RP-LC retention time of 620 s.

On to `Cc1ccccc1OCC(=O)Nc1ccc2c(c1)Sc1ncccc1C(=O)N2C(C)C`, for which the RP-LC retention time was determined as 972 s.

Take `O=C(CCC1CCCC1)Nc1nc(-c2ccc(F)cc2)cs1`: the RP-LC retention time amounted to 1210 s.

`Cc1ccccc1Nc1c(-c2ccccc2)nc2cnccn12`: the RP-LC retention time came to 906 s.

`CN1CCN(CCNC(=O)CCc2cn(-c3ccccc3)nc2-c2ccc3c(c2)OCO3)CC1` gave an RP-LC retention time of 639 s.

Turning to `COc1nc2c(c(C)nn2-c2ccccc2)c(C)c1CCC(=O)NCCc1c[nH]c2ccccc12`, the RP-LC retention time came to 1130 s.

Consider `Cc1ccc(NC(=O)N2CCCC(C)(C(=O)NCc3ccccc3C)C2)cc1Cl` (configuration not stated), for which the RP-LC retention time is 1080 s.

In the case of `CCN1CCn2cc(S(=O)(=O)Nc3ccc(OC)cc3C)cc2C1=O`, the RP-LC retention time was found to be 716 s.

As for `O=C(NCCc1ccccc1)c1nnc(-c2ccc(S(=O)(=O)N3CCCCC3)cc2)o1`, the RP-LC retention time amounted to 1040 s.

The compound `CCNC(=O)c1nc(C(=O)NC2CC2)cs1` returned an RP-LC retention time of 631 s.

Turning to `Cc1ccc(-c2ccc(-n3nc(C)c(S(=O)(=O)N4CCOCC4)c3C)nn2)cc1C`, the RP-LC retention time is 1060 s.

`Cn1nc(-c2nnc(-c3ccccc3Cl)o2)c2c1CCN(C(=O)NC1CCCCC1)C2` had an RP-LC retention time of 899 s.

`Cc1nc([C@@H]2CN(C(=O)c3cccn3C)C[C@H]2C(N)=O)n[nH]1`: the RP-LC retention time amounted to 576 s.

As for `COc1cccc([C@@]2(O)CCCC[C@H]2CN(C)C)c1`, the RP-LC retention time was 591 s.

The compound `Cc1cccc2c(=O)n(C3CCN(S(=O)(=O)c4ccccc4F)CC3)cnc12` registered an RP-LC retention time of 940 s.

Compound `Cc1cccc(-c2nc(N3CCCCCC3)c3ccccc3n2)c1` yielded an RP-LC retention time of 848 s.

Compound `COc1ccc(F)cc1S(=O)(=O)N1CCc2nn(CC3CC3)c(=O)n2CC1` came in with an RP-LC retention time of 834 s.

Regarding `COc1ccc(C(=O)Nc2cccn3nc(C4CCC4)nc23)cc1`, the RP-LC retention time was determined as 905 s.

In turn, `COC(=O)C1C(=O)C2=C(CC1C)NC(C)=C(C(=O)OCCOC(C)C)C2c1ccccc1F` (configuration not stated) yielded an RP-LC retention time of 914 s.

`Cc1ccsc1C(=O)N1C[C@@H](F)C[C@H]1C(=O)N1CCCCC1` returned an RP-LC retention time of 695 s.

`CNS(=O)(=O)c1cccc(-c2nnc(-c3ccc(C)cc3)o2)c1` displayed an RP-LC retention time of 856 s.

In the case of `CCCCN1CCN(C(=O)c2cc(-c3ccncc3)cn2Cc2ccccc2C)CC1`, the RP-LC retention time is 576 s.

As to `c1ccc(COCCc2noc(C3CCCCN3)n2)cc1` (configuration not stated), the RP-LC retention time was 622 s.

On to `CCc1ccccc1NC(=O)C1CCc2sc(C(=O)N(C)C)cc2C1` (configuration not stated), for which the RP-LC retention time was found to be 738 s.

In the case of `CCn1nnc2ccc(-c3noc(-c4cccc(OC)c4)n3)cc21`, the RP-LC retention time came out at 1060 s.

In turn, `O=C(c1ccc(OCC2CCN(C(=O)C3CCC3)CC2)cc1)N1CCCC1` displayed an RP-LC retention time of 782 s.

Compound `O=C(NCc1ccccn1)C1CCCN(c2ccc3cc(S(=O)(=O)N4CCCC4)ccc3n2)C1` (configuration not stated) showed an RP-LC retention time of 585 s.

Compound `CCN1c2ccccc2C(=O)NC12CCN(C(=O)c1cccc(F)c1)CC2` showed an RP-LC retention time of 742 s.

Take `CC(=O)Nc1ccc(NC(=O)C(=O)NCCN2CCN(c3ccc(Cl)cc3)CC2)cc1`: the RP-LC retention time worked out at 588 s.

As for `COc1cc(NC(=O)C2CN(S(=O)(=O)C3CC3)CC23CCCCC3)cc(OC)c1` (configuration not stated), the RP-LC retention time worked out at 955 s.

`CCc1nc2cccnc2n1CCN1CCN(C(=O)Nc2ccc(Br)cc2)CC1` registered an RP-LC retention time of 631 s.

Turning to `CC(C)C(=O)N1CCc2c(c(C(=O)N3CCC(C(=O)N4CCCCCC4)CC3)nn2C)C1`, the RP-LC retention time was 656 s.

As for `Cn1nc(C(=O)N2CCN3CCS(=O)(=O)N(C4CC4)C(=O)C3C2)c2ccccc21` (configuration not stated), the RP-LC retention time came out at 748 s.

`O=C(Nc1cccn2cnnc12)c1cnccn1` displayed an RP-LC retention time of 590 s.

`Cc1ccc(NC(=O)Cn2nc3n(c2=O)CCCC3)cc1F` returned an RP-LC retention time of 677 s.

`COC(=O)c1c(-c2ccc(Cl)cc2)noc1NC(C)C`: the RP-LC retention time turned out to be 1090 s.

In turn, `Cc1ccc(F)c(-n2nnc(C(=O)O)c2-c2ccccn2)c1` showed an RP-LC retention time of 917 s.

With `Cn1c(=O)n([C@H]2CCCN(S(=O)(=O)Cc3ccccc3)C2)c2ncccc21`, the RP-LC retention time came out at 827 s.

`CCCCN1C(=O)C(C)(C(=O)Nc2cc(Cl)ccc2OC)Oc2cccnc21` (configuration not stated) yielded an RP-LC retention time of 1230 s.

`Cc1nn(C(C)C(=O)NCCCN2CCOCC2)c(=O)c2c(C)n(-c3ccccc3)nc12` (configuration not stated): the RP-LC retention time was 615 s.

On to `COc1cc(C)c(C)cc1S(=O)(=O)NCC1(CO)CC1`, for which the RP-LC retention time was determined as 704 s.

`CCN1CCN(c2ncc3c(n2)CC(c2cc(OC)c(OC)c(OC)c2)CC3=O)CC1` (configuration not stated) gave an RP-LC retention time of 564 s.

The compound `CCOC(=O)c1cnc2nc(C)ccc2c1Nc1ccc(F)cc1F` showed an RP-LC retention time of 716 s.

In turn, `O=C(NCCC1CCN(C(=O)Nc2cc(F)ccc2F)CC1)c1ccoc1` displayed an RP-LC retention time of 758 s.

On to `Cc1nc2cc(-c3noc(Cc4ccccc4Br)n3)ccc2o1`, for which the RP-LC retention time was determined as 1120 s.

`Cc1ccc(-n2nnnc2CNC(=O)Nc2ccc(Cl)c(Cl)c2)cc1C` yielded an RP-LC retention time of 944 s.

For the compound `Cc1cccc(OCC(=O)N(Cc2ccc(Br)o2)C2CCS(=O)(=O)C2)c1C` (configuration not stated), the RP-LC retention time came to 960 s.

Turning to `COc1ccc(NC(=O)Cn2c(C)cc(-c3nnc(C)o3)c2C)cc1`, the RP-LC retention time came to 732 s.

Consider `Cc1ccc(-c2nc(NC(=O)c3cc(C)on3)sc2C)cc1`, for which the RP-LC retention time came to 1090 s.

With `COc1ccc(Nc2nc(N)c3ccccc3n2)cc1`, the RP-LC retention time is 610 s.

As for `O=C(NCc1ccccc1)C1=C2CCCN2c2ccccc2S1(=O)=O`, the RP-LC retention time was found to be 810 s.

`O=C(c1cncnc1)N1CCC(F)(F)C(COCC2CC2)C1` (configuration not stated) had an RP-LC retention time of 683 s.

`Cc1ccccc1C(=O)NCCc1nc2cccnc2n1CC(C)C` showed an RP-LC retention time of 717 s.

For the compound `O=C(c1ccccc1F)N1CCC2(C1)C(=O)Nc1ccccc12` (configuration not stated), the RP-LC retention time came out at 662 s.

In turn, `Cc1ccc(-c2nnc(C)c(NCc3ccccn3)n2)cc1` displayed an RP-LC retention time of 605 s.

Compound `O=C(Cn1c(=O)c2nncn2c2ncccc21)NCc1cc(F)ccc1F` returned an RP-LC retention time of 654 s.

`CCCN(C)c1nccnc1OC1CCN(C(=O)C2CC2)C1` (configuration not stated) registered an RP-LC retention time of 724 s.

The compound `CCc1noc(NC(C)=O)c1-c1ccc(C)c(S(=O)(=O)NC(C)CC)c1` (configuration not stated) returned an RP-LC retention time of 787 s.

In turn, `O=C(Cn1cccc(-c2nc(-c3ccc(F)cc3)no2)c1=O)Nc1ccc(Br)cc1` returned an RP-LC retention time of 992 s.

The compound `CCC(C)C(NC(=O)c1ccc(OC)cc1)C(=O)Nc1nc2ccccc2[nH]1` (configuration not stated) had an RP-LC retention time of 700 s.

In the case of `CCN1C(=O)c2cc(NC(=O)c3ccc(Br)o3)ccc2Oc2ccccc21`, the RP-LC retention time was 908 s.

In the case of `Cc1ccc(CNc2ncccc2-c2nnc(-c3ccc(Cl)cc3)o2)o1`, the RP-LC retention time was determined as 1350 s.

Take `N#Cc1cccc(C(=O)NC2CCN(c3cc(-c4ccc(Cl)cc4)[nH]n3)C2)c1` (configuration not stated): the RP-LC retention time came out at 728 s.
